Assay results as given in US5830872A, “Esters of D-mannose or of xylitol and their use as medicaments” (L'Associazione di volontariato "Pro La Fondazione Futuro …, priority 1994, dated 1998).

Legend:
HL 60 cells = experiment: Antiproliferative test: inhibition of growth of HL 60 cells; type: cell-based; settings: concentrations 0.5 to 1 mM
Method: The tests were carried out on stabilized cell lines (HL 60 and others) in the absence of growth factors. The concentrations of butyric derivatives vary from 0.5 to 1 mM.
The following parameters were evaluated by "FASC Scan" scanning and flow cytometry:
incorporation of tritiated thymidine (exploration of cell metabolism);
incorporation of propylium iodide (determination of the phase of the cell cycle);

[1] = test system: γ chain of the haemoglobin; experiment: Level of γ chain of the haemoglobin in erythroleukaemic cell lines; type: cell-based; settings: 0.70 mM (α-MAM-A), 0.35 mM (Xyli-C); for level of γ chain of the haemoglobin in the presence of A.P.A.A.P.: 10% without ester; for increase in level of γ chain of the haemoglobin: erythroleukaemic cell lines, normal human serum
Method: The following parameters were evaluated: level of γ chain of the haemoglobin (immunological quantitative determination by double antigen antibody reaction and by immunocytochemical quantitative determination in the presence of alkaline phosphatase-anti-alkaline phosphatase A.P.A.A.P.);

[2] = test system: foetal haemoglobin, in particular the γ chain; settings: acids and their salts, cited from earlier work; for synthesis of foetal haemoglobin: in particular γ chain
[3] = cited from earlier work
[4] = 95 hours, cited from earlier work
[5] = cited from earlier work; remark: listed apart in the source

Q: Which “% of inhibition of growth HL 60” value (HL 60 cells; 5 d.) does the source give for `CCCC(=O)OC[C@H](O)[C@@H](O)[C@H](O)CO` [Xyli-C, 1-O-n-butanoylxylitol] here?
A: Its value is 70%.

Q: What about the “level of γ chain of the haemoglobin in the presence of A.P.A.A.P.” value [1] of the same compound?
A: The value was 17%.

Q: And the “increase in level of γ chain of the haemoglobin” value [1]?
A: Its value is “increase the level of γ chain of the haemoglobin”.

Q: For `O=C(O)CCCc1ccccc1` [4-phenylbutyric acid], which “γ gene of human foetal haemoglobin” value [2] is on record?
A: Its value is “induce the γ gene of human foetal haemoglobin”.

Q: What about the “synthesis of foetal haemoglobin” value [2] of the same compound?
A: The value was “stimulate the synthesis of foetal haemoglobin”.

Q: For `CCCC(=O)O[C@H]1O[C@H]([C@H](O)CO)[C@@H]2OC(C)(C)O[C@H]12` [α-MAM-A, O-n-butanoyl-2,3-O-isopropylidene-α-D-mannoside], which “% of inhibition of growth HL 60” value (HL 60 cells; 2 d.) is on record?
A: Its value is 40%.

Q: What about the “% of inhibition of growth HL 60” value (HL 60 cells; 5 d.) of the same compound?
A: Its value is 80%.

Q: And the “level of γ chain of the haemoglobin in the presence of A.P.A.A.P.” value [1]?
A: Its value is 22%.

Q: And the “increase in level of γ chain of the haemoglobin” value [1]?
A: Its value is “increase the level of γ chain of the haemoglobin”.

Q: What does the source list for `CCCC(=O)OCC1OC(C)(C)OC1C(O)CO` (stereo not drawn) [MAXyli-C, 1-O-n-butanoyl-2,3-O-isopropylidenexylitol]?
A: % of inhibition of growth HL 60 (HL 60 cells; 3 d.): 80%; % of inhibition of growth HL 60 (HL 60 cells; 4 d.): 90%

Q: Which “γ gene of human foetal haemoglobin” value [2] does the source give for `CCCC(=O)O` [n-butyric acid] here?
A: Its value is “induce the γ gene of human foetal haemoglobin”.

Q: What about the “synthesis of foetal haemoglobin” value [2] of the same compound?
A: The value was “stimulate the synthesis of foetal haemoglobin”.

Q: What about the “in vivo plasma lifetime” value [3] of the same compound?
A: Its value is “very short in vivo plasma lifetime”.

Q: With `O=C(O)Cc1ccccc1` [phenylacetic acid] as the compound, how does the “γ gene of human foetal haemoglobin” value [2] read?
A: Its value is “induce the γ gene of human foetal haemoglobin”.

Q: What about the “synthesis of foetal haemoglobin” value [2] of the same compound?
A: Its value is “stimulate the synthesis of foetal haemoglobin”.

Q: What does the source list for `CCCC(=O)O[C@@H]1[C@H]2OC(C)(C)O[C@H]2O[C@@H]1[C@H](O)CO` [3-O-n-butanoyl-1,2-O-isopropylidene-α-D-glucofuranose]?
A: 5-O-n-butanoyl isomer in the non-deesterified fraction ([4]; pH=8.1, 25° C.): 4%; 6-O-n-butanoyl isomer in the non-deesterified fraction ([4]; pH=8.1, 25° C.): 90%; initial ester in the non-deesterified fraction ([4]; pH=8.1, 25° C.): 6%; deesterification ([4]; same conditions (pH=8.1, 25° C.), Goueth et al.): 20%; internal transesterification in solution [5]: undergoes an internal transesterification
